PMC10746280, “Bacterial efflux pump modulators prevent bacterial growth in macrophages and under broth conditions that mimic the host environment” (mBio, 2023)

Legend:
[1] = tested on: S. Typhimurium SL1344 (sifB::gfp) in RAW 264.7 macrophages; test: SAFIRE macrophage assay: intracellular bacterial load (GFP signal within macrophages); type: cell-based, Salmonella enterica serotype Typhimurium; conditions: for IC50: Salmonella enterica, TYPHIMURIUM, RAW264.7, read-out: SAFIRE IC50
Outline: (§1)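 RAW 264.7 macrophages infected with S. Typhimurium SL1344 sifB::gfp (MOI ~30), gentamicin 40 µg/mL, then compound from 2 h to 18 h post-infection. Confocal imaging with MitoTracker and DAPI; toxicity as adherent MitoTracker-positive macrophage count, bacterial load as GFP+ macrophage area.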

RAW 264.7 macrophages = test: SAFIRE macrophage assay: host toxicity (adherent macrophage count, morphology); type: cell-based
Outline: as §1

[2] = 5 uM, 'Toxic' given instead of a score
[3] = 25 uM, 'Toxic' given instead of a score
[4] = 5 uM compound, n=1, DMSO solvent control = 98, rifampicin 2 μg/mL = 65
[5] = 25 uM compound, n=1, DMSO solvent control = 98, rifampicin 2 μg/mL = 65
[6] = 5 uM compound, n=1, DMSO solvent control = 100
[7] = 25 uM compound, n=1, DMSO solvent control = 100

Row | SMILES | 5 uM Avg Antibacterial Score [1, 2] | 25 uM Avg Antibacterial Score [1, 3] | 5 uM Avg Cell # Score (RAW 264.7 macrophages; 5 uM) | 25 uM Avg Cell # Score (RAW 264.7 macrophages; 25 uM) | 5 uM Avg Antibacterial Score [1, 4] | 25 uM Avg Antibacterial Score [1, 5] | 5 uM Avg Cell # Score (RAW 264.7 macrophages; [6]) | 25 uM Avg Cell # Score (RAW 264.7 macrophages; [7]) | IC50 [1] [nM]
1 | OC(CNCc1ccc2c(c1)OC(F)(F)O2)COc1ccc(Cl)c(Cl)c1 (stereo not shown) [CU134] | 61 | Toxic | 84 | 91 | – | – | – | – | –
2 | CC(=O)NC1CCN(CC(O)COc2ccc(Cl)c(Cl)c2)C1 (stereo not shown) [CU033] | 106 | 72 | 79 | 110 | – | – | – | – | –
3 | OC(COc1ccc(Cl)c(Cl)c1)CN1CCC(F)(F)C1 (stereo not shown) [CU124] | 102 | 85 | 80 | 71 | – | – | – | – | –
4 | OC(COc1ccc(Cl)cc1)CN1CCC(Nc2nccc(C(F)(F)F)n2)C1 (stereo not shown) [CU086] | 71 | Toxic | 89 | 27 | – | – | – | – | –
5 | OC(COc1cccc(C(F)(F)F)c1)CN1CCC(Nc2nccc(C(F)(F)F)n2)CC1 (stereo not shown) [CU103] | 9 | Toxic | 82 | 71 | – | – | – | – | –
6 | OC(COc1c(Cl)cccc1Cl)CN1CCC(Nc2nccc(C(F)(F)F)n2)C1 (stereo not shown) [CU115] | 99 | Toxic | 93 | 59 | – | – | – | – | –
7 | OC(COc1ccc(Cl)c(Cl)c1)CN1CCC(Oc2ncccn2)CC1 (stereo not shown) [CU158] | 110 | 61 | 106 | 103 | – | – | – | – | –
8 | NC1CCCN(CC(O)COc2ccc(Cl)c(Cl)c2)CC1 (stereo not shown) [CU230] | 34 | Toxic | 134 | 19 | – | – | – | – | –
9 | NCC1CCN(CC(O)COc2cc(Cl)cc(Cl)c2)C1 (stereo not shown) [CU209] | 41 | 14 | 143 | 94 | – | – | – | – | –
10 | CN(C)CC1COCCN1CC(O)COc1ccc(Cl)c(Cl)c1 (stereo not shown) [CU221] | 106 | 84 | 104 | 106 | – | – | – | – | –
11 | O=C(NC1CCN(CC(O)COc2ccc(Cl)c(Cl)c2)C1)c1ccccc1 (stereo not shown) [CU068] | 20 | Toxic | 80 | 49 | – | – | – | – | –
12 | OC(COc1ccc(Cl)c(Cl)c1)CN1CC2CCC(C1)O2 (stereo not shown) [CU226] | 102 | 108 | 108 | 74 | – | – | – | – | –
13 | OC(COc1ccccc1Cl)CN1CCC(Nc2nccc(C(F)(F)F)n2)C1 (stereo not shown) [CU084] | 93 | Toxic | 96 | 46 | – | – | – | – | –
14 | O[C@@H](COc1ccc(Cl)c(Cl)c1)CN1CCC(Nc2nccc(C(F)(F)F)n2)CC1 [CU138] | 7 | Toxic | 85 | 75 | – | – | – | – | –
15 | OC(COc1ccccc1F)CN1CCC(Nc2nccc(C(F)(F)F)n2)C1 (stereo not shown) [CU139] | 99 | 28 | 95 | 73 | – | – | – | – | –
16 | O[C@@H](COc1ccc(Cl)c(Cl)c1)CN1CCCCC1 [CU253] | – | – | – | – | 96 | 57 | 116 | 120 | –
17 | N[C@@H]1CCN(CC(O)COc2ccc(Cl)c(Cl)c2)C1 (stereo partly shown) [CU193] | 28 | 14 | 100 | 98 | – | – | – | – | 11.5
18 | CC(C)(C)OC(=O)NC1CCN(CC(O)COc2ccc(Cl)c(Cl)c2)C1 (stereo not shown) [CU031] | 102 | Toxic | 88 | 140 | – | – | – | – | –

Row | SMILES | 5 uM Avg Antibacterial Score [1, 2] | 25 uM Avg Antibacterial Score [1, 3] | 5 uM Avg Cell # Score (RAW 264.7 macrophages; 5 uM) | 25 uM Avg Cell # Score (RAW 264.7 macrophages; 25 uM) | 5 uM Avg Antibacterial Score [1, 4] | 25 uM Avg Antibacterial Score [1, 5] | 5 uM Avg Cell # Score (RAW 264.7 macrophages; [6]) | 25 uM Avg Cell # Score (RAW 264.7 macrophages; [7]) | IC50 [1] [nM]
19 | CN(CC(O)COc1ccc(Cl)c(Cl)c1)C1CCNCC1 (stereo not shown) [CU177] | 45 | 16 | 101 | 96 | – | – | – | – | –
20 | OC(COc1ccc(Cl)c(Cl)c1)CN1CCC2(CCN2)C1 (stereo not shown) [CU149] | 73 | 53 | 128 | 108 | – | – | – | – | –
21 | OC(CNC1CCNCC1)COc1cc(Cl)cc(Cl)c1 (stereo not shown) [CU202] | 34 | 11 | 100 | 95 | – | – | – | – | –
22 | OC(CNC1CCNCC1)COc1ccc(Cl)cc1Cl (stereo not shown) [CU201] | 44 | 13 | 109 | 102 | – | – | – | – | –
23 | OC(COc1ccc(Cl)cc1Cl)CN1CCC(NC2CC2)C1 (stereo not shown) [CU121] | 73 | 11 | 89 | 89 | – | – | – | – | –
24 | COC(COc1ccc(Cl)c(Cl)c1)CN1CCC(N)CC1 (stereo not shown) [CU242] | – | – | – | – | 28 | 9 | 123 | 109 | –
25 | OC(COc1ccccc1C(F)(F)F)CN1CCC(Nc2nccc(C(F)(F)F)n2)C1 (stereo not shown) [CU112] | 47 | Toxic | 88 | 59 | – | – | – | – | –
26 | OC(COc1ccc(Cl)c(Cl)c1)CN1CC2CCC1CO2 (stereo not shown) [CU224] | 100 | 69 | 117 | 95 | – | – | – | – | –
27 | OC(COc1ccc(Cl)c(Cl)c1)CN1CCn2cnnc2C1 (stereo not shown) [CU156] | 110 | 107 | 97 | 124 | – | – | – | – | –
28 | OC(COc1ccc(Cl)c(Cl)c1)CN1CC2CC1CO2 (stereo not shown) [CU225] | 98 | 73 | 114 | 101 | – | – | – | – | –
29 | OC(COc1cc(F)cc(Br)c1)CN1CCC(Nc2nccc(C(F)(F)F)n2)CC1 (stereo not shown) [CU119] | 13 | Toxic | 72 | 50 | – | – | – | – | –
30 | CN(CC(O)COc1ccc(F)c(F)c1)C1CCNCC1 (stereo not shown) [CU178] | 72 | 51 | 99 | 97 | – | – | – | – | –
31 | OC(COc1ccc(F)cc1F)CN1CCC(Nc2nccc(C(F)(F)F)n2)CC1 (stereo not shown) [CU039] | 107 | 13 | 90 | 145 | – | – | – | – | –
32 | CNC(=O)C1CCN(CC(O)COc2ccc(Cl)c(Cl)c2)CC1 (stereo not shown) [CU057] | 101 | 93 | 85 | 89 | – | – | – | – | –
33 | COc1ccc(OCC(O)CN2CCC(Nc3nccc(C(F)(F)F)n3)C2)cc1 (stereo not shown) [CU096] | 103 | 29 | 74 | 92 | – | – | – | – | –
34 | COCCCN(C)C1CCN(CC(O)COc2ccc(Cl)c(Cl)c2)CC1 (stereo not shown) [CU210] | 54 | 8 | 131 | 112 | – | – | – | – | 6
35 | NC1CCN(CC(O)COc2ccc3ccccc3c2)CC1 (stereo not shown) [CU214] | 28 | Toxic | 103 | 22 | – | – | – | – | –
